In PubChem BioAssay (NCI):
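Five concentrations, 48 hours, 96-well plates. TGI marks complete inhibition of growth.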

Assays:
Assay in all cases: NCI-60 cell line screen, 48 h
[1] = system: SK-MEL-5 melanoma
[2] = system: SR leukemia
[3] = system: KM12 colon
[4] = system: SK-MEL-2 melanoma
[5] = system: CCRF-CEM leukemia
[6] = system: A498 renal
[7] = system: K-562 leukemia
[8] = system: UACC-257 melanoma
[9] = system: OVCAR-4 ovarian
[10] = system: HL-60(TB) leukemia
[11] = system: LOX IMVI melanoma

| SMILES | TGI [1] [µM] | TGI [2] [µM] | TGI [3] [µM] | TGI [4] [µM] | TGI [5] [µM] | TGI [6] [µM] | TGI [7] [µM] | TGI [8] [µM] | TGI [9] [µM] | TGI [10] [µM] | TGI [11] [µM] |
| --- | --- | --- | --- | --- | --- | --- | --- | --- | --- | --- | --- |
| CCOC(=O)CC(=O)Nc1cccc2[nH]cnc12 | > 100 | > 100 | > 100 | > 100 | > 100 | > 100 | > 100 | > 100 | > 100 | > 100 | – |
| NC1=CN2c3ccccc3N(CC(=O)O)C2C=C1 (stereo unspecified) | > 100 | > 100 | > 100 | > 100 | > 100 | > 100 | > 100 | > 100 | > 100 | > 100 | > 100 |
| O=C1CCCCCCCCCCC1CN1CCCCC1 (stereo unspecified) | 28.3 | > 100 | > 100 | > 100 | > 100 | > 100 | > 100 | > 100 | > 100 | > 100 | > 100 |
| CC1=NN(c2nc(N)nc(CC#N)n2)C(C)(C)C1 | > 100 | > 100 | > 100 | > 100 | > 100 | > 100 | > 100 | > 100 | > 100 | > 100 | > 100 |
| Clc1ccc(C(SCc2ccccc2)SCc2ccccc2)cc1 | > 10 | > 10 | > 10 | > 10 | > 10 | > 10 | > 10 | > 10 | > 10 | > 10 | > 10 |
| CCOC(=O)c1sc2[n+](c1C)C(=O)/C(=C/c1ccc([N+](=O)[O-])cc1)S2 | 72.1 | 57.7 | 47.5 | 51.2 | > 100 | > 100 | 83.4 | 98 | > 100 | > 100 | 61.1 |
| FC(F)(F)c1cccc(-c2nc3ccccc3c3c2[C@@]2(N4CCCC4)CCCC[C@@H]32)c1 | 30.4 | > 100 | > 100 | 41.3 | 87.9 | 95.6 | > 100 | > 100 | > 100 | 71.6 | 38.6 |
| COc1c(O)cc2c(c1O)C(=O)/C(=C/c1ccc(O)cc1)CO2 | 59.6 | 40.9 | 34.4 | > 100 | 65.3 | > 100 | 95.2 | > 100 | 60.7 | > 100 | 53.1 |
| Nc1ccc(C(=O)c2cn(CCN3CCOCC3)c3ccccc23)c2ccccc12 | 51.5 | 65.6 | > 100 | > 100 | 45.3 | > 100 | 56.7 | > 100 | > 100 | 44.8 | 73.1 |
| S=C(c1c[nH]c2ccccc12)N1CCN(Cc2ccccc2)CC1 | 24.5 | 47.9 | 33.8 | 34.1 | > 100 | 37.3 | > 100 | 50.9 | – | 44 | 29.2 |
| Cc1ccc(NC(=O)CSc2nc(=O)[nH]c3nc[nH]c23)cc1 | > 100 | > 100 | > 100 | > 100 | > 100 | 89.9 | > 100 | > 100 | > 100 | > 100 | > 100 |
| c1c[nH]c(C23C4C5C6C4C2C6C53)n1 (stereo unspecified) | > 100 | > 100 | > 100 | > 100 | > 100 | > 100 | > 100 | > 100 | > 100 | > 100 | > 100 |
| COc1cc2c(cc1OC)C1(COc3cc(O)c(O)c(O)c3C1=O)C2 (stereo unspecified) | > 50 | > 50 | > 50 | > 50 | > 50 | > 50 | > 50 | > 50 | > 50 | > 50 | > 50 |
| CCN(CC)CCNC(=O)c1cn2c(ccc3sc4ccccc4c(=O)c32)n1 | 22.9 | 26.6 | 24.9 | 38 | 25.3 | 33.4 | 36.8 | 30.1 | 22.8 | 25.4 | > 48.9 |
| CCCCCCCCCCCCCCCC(=O)N(CCCCCCCCCCC(=O)O)CC(O)C(O)C(OC1OC(CO)C(O)C(O)C1O)C(O)CO (stereo unspecified) | > 100 | 49.9 | 34 | 43.5 | 45.7 | > 100 | 41.4 | 55.7 | > 100 | 47.7 | 35.1 |
| C=C1C(=O)O[C@@H]2C[C@]3(C)CC[C@]4(C)[C@H](CC[C@@H]5[C@@]6(C)CCC(=O)C(C)(C)[C@@H]6CC[C@]54C)[C@H]3[C@H]12 | 25.1 | 36.5 | 42.8 | 47.7 | 6.14 | 35.3 | 16.7 | 32.8 | 40.1 | 3.72 | 29.6 |
| CC(=O)N=C1N(/C=C2\C(=O)Oc3ccccc3C2=O)C(=O)/C(=C/c2ccc(Cl)cc2Cl)N1C | > 100 | 94.2 | > 100 | > 100 | > 100 | > 100 | > 100 | > 100 | > 100 | > 100 | > 100 |
| Cc1cc(S(=O)(=O)Nc2nc(N)nc(N(C)C)n2)c(SCC(=O)O)cc1Cl | > 10 | > 10 | > 10 | > 10 | > 10 | > 10 | > 10 | > 10 | > 10 | > 10 | > 10 |
| COc1cc2c(=O)cnoc2cc1O | > 100 | > 100 | > 100 | > 100 | > 100 | > 100 | > 100 | > 100 | > 100 | > 100 | – |
